The test system of assay [1] is flies heterozygous for the Drosophila presenilin gene. In words: Short term memory in presenilin mutant Drosophila model of Alzheimer's disease. The assay is classed as in vivo. As to conditions: 30 days of age; data not shown. The source says: We have also discovered that there is a deficit in long term memory in these flies as young adults, and there is also an age dependent deficit in these flies in short term memory at 30 days of age (data not shown). This age dependent deficit in short term memory is rescued by treatment with LY341495. Additionally, this age dependent deficit is rescued by lowering IP3R expression by making these presenilin mutant lines heterozygous for an IP3R deletion (data not shown).

Assay [2] has the same test system. The experiment in a line: Learning during training in Drosophila model of Alzheimer's disease with reduced presenilin. The assay is classed as in vivo. Set-up: age dependent impairment in learning during training: dose or concentration left out as unconfirmed. The source says: FIG. 10 is a graph showing the effect of MPEP on learning during training in a Drosophila model of Alzheimer's disease expressing reduced amounts of presenilin. All flies have reduced presenilin level. Black bars are 5 day old flies raised on kept on control food (N=18) which display learning during training (p<0.05). […] This impairment is prevented by treatment with MPEP.
Using methods similar to those described in Examples 1 and 2, we evaluated the effect of MPEP on various aspects of learning and memory in a Drosophila model of Alzheimer's disease with reduced expression of presenilin.
Flies in all three groups are heterozygous for the Drosophila presenilin gene. Each group has one wild type presenilin gene and one null presenilin gene, resulting from a deletion at the presenilin locus or a mutation at the presenilin locus. Learning during training was assayed in flies kept on control food until tested at five days of age, kept on control food until tested at 30 days of age or kept on control food for the first five days after eclosion then switched to food containing 200 μg/ml of MPEP until being moved back to control food the day before being tested at 30 days of age. […] This age-dependent deficit in learning during training is apparent in ten mutant presenilin Drosophila lines evaluated. In flies treated with MPEP, learning during training was restored at 30 days of age (p<0.05).

Assay [3] relates to FS (dFMR1-3+frame shifted rescue fragment) flies. In words: Quality of naive courtship (progress to later courtship steps), FS flies. It counts as in vivo, Drosophila melanogaster. On the procedure: In order to determine if MPEP can get into the Drosophila central nervous system (CNS) through feeding behavior, we mixed MPEP into the food at a concentration of 1,000 μg/ml (433.0 μM). Males were raised on CT food and then placed on either CT or M food. Naive males were placed in the training chamber for one hour with no female, and then placed with a virgin target female for a ten-minute interval. The naive courtship behavior was reduced by high MPEP concentration in Rescue (p<0.0001) and FS (p<0.0005) lines, and it was depressed to similar levels by high MPEP treatment in the Rescue and FS groups (FIG. 2A). […] FIG. 2B dissects the steps involved in naive courtship behavior. […] Lowering the dose of MPEP and examining naive courtship. We next decided to try a lower dose of MPEP to 200 μg/ml (86.6 μM) mixed into the food of the Drosophila. In these experiments flies were placed on either CT or M food in the larval stage and then placed on either CT of M food within four hours of eclosion. […] Therefore giving this drug in adulthood only is effective in enhancing naive courtship behavior. […] The MPEP in development can rescue the naive courtship phenotype regardless of whether or not the flies receive it as adults. Further analysis of the quality of courtship that was performed by naive males was assessed by binning the number of males to advance to a particular phase of courtship for each genotype and pharmacologic treatment (FIG. 3B).

Assay [4] shares this test system. The experiment in a line: Discrimination between virgin and previously mated females, FS flies. The assay is classed as in vivo, Drosophila melanogaster. Particulars: 20-day-old; MPEP 200 μg/ml in development and adulthood (M-M). The protocol:
Short-term memory. The model was further extended to encompass short-term memory at 60 minutes after training. After the one hour training session with a previously mated female, the female is removed and the male is placed in a holding chamber for 60 minutes, then subsequently placed in a testing chamber with a virgin female target to assess short-term memory (FIG. 4C). […] CT-CT FS flies court just as vigorously at 60 minutes after training as naive CT-CT FS flies. […] The FS groups that were treated with MPEP in development alone, adulthood alone or in both development and adulthood display experience dependent reduction of courtship activity at 60 minutes after training when compared to group matched naives M-M FS, p<0.0001, CT-M FS, p<0.0001 and M-CT FS, p<0.0001. […] Additionally, flies were tested for ability to discriminate between virgin and previously mated females (FIG. 4D).
Flies were also tested for ability to discriminate between virgin and previously mated females in FIG. 9C.

For assay [5] the test system is unchanged. In words: Conditioned courtship: immediate recall (0 minute memory), FS flies. It counts as in vivo, Drosophila melanogaster. Particulars: adulthood alone or both. On the procedure: To assess immediate recall (0 minute memory), after the one hour training session with a previously mated female, the male was placed with a virgin target female for a ten-minute interval. This CI was then compared to the courtship level of naive males that had been placed in the training chamber for one hour with no female, before introducing them to a virgin target female for a ten-minute interval. In FIG. 1B the w1118 and Rescue lines show depression of courtship activity after training compared to naive trained males (p<0.005). However, dFMR1-3 and FS mutant lines court just as vigorously after training with a previously mated female as naive trained males, therefore these flies display no experience dependent behavioral plasticity at the time point of immediate recall. This is in spite of the fact that they court to similar levels as w1118 and Rescue lines during the training period. This implicates a deficit in synaptic plasticity for the two mutant lines at immediate recall (0 minute memory). This robust deficit in behavioral plasticity is a critical extension of the previous models of Fragile X syndrome in model organisms, since this has been completely missing in Drosophila models and is subtle in murine models, and particularly since this may be one of the most devastating aspects of the human disease.
Immediate recall. […]

Turning to `N[C@](CC1c2ccccc2Oc2ccccc21)(C(=O)O)[C@H]1C[C@@H]1C(=O)O` [LY341495, (2S)-2-amino-2-[(1S,2S)-2-carboxycycloprop-1-yl]-3-(xanth-9-yl) propionic acid], in assay [1], the “age dependent deficit in short term memory” value is on record as “rescued”.

As for `Cc1cccc(C#Cc2ccccc2)n1` [MPEP, 2-methyl-6-(phenylethynyl)pyridine], the “age dependent impairment in learning during training” value in assay [2] (30 day old, food supplemented MPEP from day 5) is “prevented”. For the same molecule, the learning during training result in assay [2] (30 days of age, food containing 200 μg/ml of MPEP from day 5, p<0.05) is “restored”. Also, the “quality of naive courtship” value in assay [3] (20-day-old, MPEP (86.6 μM)) is “in adulthood, but not in development alone, MPEP treatment can affect the quality of naive courtship behavior”; in assay [3] (5 day old, MPEP 200 μg/ml in development or adulthood), “can affect the quality of naive courtship behavior”. Besides, in assay [3] (5 day old, MPEP 1,000 μg/ml in adulthood, relative to CT-CT Rescue), the “steps involved in naive courtship behavior” value was “failed to progress to later steps in courtship behavior”. Also, the “time courting virgin female compared to previously mated female (discrimination)” value in assay [4] is “spent significantly more time courting virgin female targets”. The immediate recall in assay [5] (20-day-old, MPEP in development alone) is “sufficient to restore synaptic plasticity in FS flies”. Further, the “immediate recall (courtship immediately after training vs naive)” value in assay [5] (5 day old, MPEP 200 μg/ml in development alone, p<0.0001) is “sufficient to rescue synaptic plasticity in FS flies”.

Source of the values: patent US20080187492A1, “Drosophila Models For Diseases Affecting Learning and Memory” (priority 2004, published 2008).
